Assay results taken from patent US20230390273A1, “4-PHENYL-TETRAHYDROPYRIDINE DERIVATIVES FOR TREATING HEARING DISEASES” (CILCARE DEV, priority 2021, published 2023).
Counter-ions that a name gives are not always drawn.

System: synaptic ribbons in inner hair cells
Test: Ribbon synapse immunostaining and counting in cochlea (Example 8)
Type: in vivo, male CBA/CaJ mice
Method: At T+35 days, after DPOAE/ABR measures, all cochlea (four (4) left cochleae and four (4) right cochleae) per group were rapidly sampled and immediately fixed by PFA perfusion (through the round and oval windows with PFA 4% after creating a small hole at the apex) in order to performed ribbon synapse immunostaining and analysis. Cochleae were fixed for 1 hour in a 4% PFA solution and decalcified in undiluted RDO (10 mL/cochlea for a minimum of 2 hours). The membranous and sensory spiral containing the organ of Corti are dissected out as a flat surface preparation under a dissecting microscope and immunolabelled with appropriate antibodies: • Vglut3 (Vglut3-Guinea Pig IgG; #135 204, Synaptic systems and Anti-Guinea Pig IgG (H+L), #A21450; Thermo Fisher Scientific 647 nm Far-Red) to stain inner hair cell bodies (vesicular glutamate transporter). • Homer (Homer-Rabbit IgG; #GTX103278; Genetex and Anti-Rabbit IgG (H+L) #A11008 Thermo Fisher Scientific 568 nm Red) to stain dendritic proteins of auditory nerve fibers connecting to IHC (post-synaptic). • CtBP2 (CtBP2-Mouse-IgG1; #612044; BD Transduction Laboratories and Anti-Mouse IgG1, #A21121, Thermo Fisher Scientific 488 Green) to stain the ribeye protein as pre-synaptic marker in IHC. • Phalloidin (Alexa Fluor™ Plus 405 Phalloidin; #A30104; Thermo Fisher Scientific 405 Blue).
Images were acquired on a confocal microscope and the slides were analyzed to i) evaluate by visual observation the presence of OHC and IHC (based on nuclei staining with CtBP2 and HC cell body staining with phalloidin) and ii) count the number of synaptic ribbons in selected inner hair cells in cochlea regions coding sound of selected frequency (25, 32 and 45 kHz).
The number of pre- (CtBP2) and post-synaptic (Homer) labeled spots was counted using Imaris software in 3 dimensions for each image. Co-localization of pre- and post-synaptic elements was defined as a distance of maximum […] between CtBP2- and Homer-labeled spots, using an in-house Matlab program to calculate the distances between CtBP2 and Homer labels from the x, y, and z coordinates.

SMILES: FC(F)(F)c1cccc(C2=CCN(CCc3ccc(-c4ccccc4)cc3)CC2)c1 [paliroden (fumarate salt), 1-[2-(4-biphenylyl)ethyl]-4-(3-trifluoromethylphenyl)-1,2,3,6-tetrahydropyridine]
- Number of colocalized ribbons per IHC (25 kHz to 40 kHz, not statistically different to sham): intermediate between traumatized and control mice
- Number of pre-synaptic and post-synaptic elements (CtBP2 and Homer) per IHC (32 kHz, vs traumatized untreated, paliroden 50 μg/ear one day post-noise, subset): tended to increase
- Colocalized ribbons per IHC (32 kHz, vs traumatized untreated, paliroden 50 μg/ear, subset): increase
